# Assay results reported in ChEMBL document CHEMBL1201862, “PubChem BioAssay data set” (2004).
#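 Test compounds were applied to cells in 96-well plates for 48 hours at 5 doses. At the GI50, growth is halved.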 Active and inactive are the calls of the source. Rule as the data show it: active = GI50 up to about 1.1 µM and inactive = higher. Where a SMILES comes first, the peptide text is derived from it. The star is where a group is joined. Cbz = O=C(OCc1ccccc1)*
# Columns and labels:
# Experiment in all cases: DTP human tumour cell line panel, 48 h
# 786-0 = tested on: 786-0
# A498 = tested on: A498
# A549 = tested on: A549
# ACHN = tested on: ACHN
# BT-549 = tested on: BT-549
# COLO 205 = tested on: COLO 205
# EKVX = tested on: EKVX
# HCC 2998 = tested on: HCC 2998
# HCT-116 = tested on: HCT-116
# HCT-15 = tested on: HCT-15
# HL-60 = tested on: HL-60
# HOP-62 = tested on: HOP-62
# HOP-92 = tested on: HOP-92
# HT-29 = tested on: HT-29
# Hs-578T = tested on: Hs-578T
# IGROV-1 = tested on: IGROV-1
# K562 = tested on: K562
# KM12 = tested on: KM12
# M14 = tested on: M14
# MCF7 = tested on: MCF7
# MDA-MB-231 = tested on: MDA-MB-231
# MDA-N = tested on: MDA-N
# MOLT-4 = tested on: MOLT-4
# Malme-3M = tested on: Malme-3M
# NCI-H226 = tested on: NCI-H226
# NCI-H23 = tested on: NCI-H23
# NCI-H460 = tested on: NCI-H460
# OVCAR-5 = tested on: OVCAR-5
# OVCAR-8 = tested on: OVCAR-8
# PC-3 = tested on: PC-3
# RPMI-8226 = tested on: RPMI-8226
# RXF 393 = tested on: RXF 393
# SK-MEL-28 = tested on: SK-MEL-28
# SK-MEL-2 = tested on: SK-MEL-2
# SK-MEL-5 = tested on: SK-MEL-5
# SN12C = tested on: SN12C
# SNB-19 = tested on: SNB-19
# SNB-75 = tested on: SNB-75
# SR = tested on: SR
# SW-620 = tested on: SW-620
# T47D = tested on: T47D
# TK-10 = tested on: TK-10
# U-251 = tested on: U-251
# UACC-257 = tested on: UACC-257
# UACC-62 = tested on: UACC-62
# UO-31 = tested on: UO-31
# CAKI-1 = tested on: CAKI-1
# CCRF-CEM = tested on: CCRF-CEM
# LOX IMVI = tested on: LOX IMVI
# MDA-MB-435 = tested on: MDA-MB-435
# NCI-H522 = tested on: NCI-H522
# NCI/ADR-RES = tested on: NCI/ADR-RES
# OVCAR-3 = tested on: OVCAR-3
# OVCAR-4 = tested on: OVCAR-4
# SF-268 = tested on: SF-268
# SF-295 = tested on: SF-295
# SF-539 = tested on: SF-539
# SK-OV-3 = tested on: SK-OV-3
smiles,measurement,setting,value
CCOC(=O)C(CC(=O)OC)NC(=O)C(CC(=O)OC)NC(=O)C(CC(=O)OC)NC(=O)C(CC(=O)OC)NC(=O)OCc1ccccc1 (stereo unspecified) (Cbz-D(OMe)D(OMe)D(OMe)D(OMe)-OEt; configuration not given here),GI50,786-0,> 100 µM (inactive)
same,GI50,A498,> 100 µM (inactive)
same,GI50,A549,> 100 µM (inactive)
same,GI50,ACHN,> 100 µM (inactive)
same,GI50,BT-549,> 100 µM (inactive)
same,GI50,COLO 205,> 100 µM (inactive)
same,GI50,EKVX,> 100 µM (inactive)
same,GI50,HCC 2998,> 100 µM (inactive)
same,GI50,HCT-116,> 100 µM (inactive)
same,GI50,HCT-15,> 100 µM
same,GI50,HL-60,> 100 µM (inactive)
same,GI50,HOP-62,> 100 µM (inactive)
same,GI50,HOP-92,> 100 µM (inactive)
same,GI50,HT-29,> 100 µM (inactive)
same,GI50,Hs-578T,> 100 µM (inactive)
same,GI50,IGROV-1,> 100 µM (inactive)
same,GI50,K562,> 100 µM (inactive)
same,GI50,KM12,> 100 µM (inactive)
same,GI50,M14,> 100 µM (inactive)
same,GI50,MCF7,> 100 µM (inactive)
same,GI50,MDA-MB-231,> 100 µM (inactive)
same,GI50,MDA-N,> 100 µM (inactive)
same,GI50,MOLT-4,> 100 µM (inactive)
same,GI50,Malme-3M,> 100 µM (inactive)
same,GI50,NCI-H226,> 100 µM (inactive)
same,GI50,NCI-H23,> 100 µM (inactive)
same,GI50,NCI-H460,> 100 µM (inactive)
same,GI50,OVCAR-5,> 100 µM (inactive)
same,GI50,OVCAR-8,> 100 µM (inactive)
same,GI50,PC-3,> 100 µM (inactive)
same,GI50,RPMI-8226,> 100 µM (inactive)
same,GI50,RXF 393,> 100 µM (inactive)
same,GI50,SK-MEL-28,> 100 µM (inactive)
same,GI50,SK-MEL-2,> 100 µM (inactive)
same,GI50,SK-MEL-5,> 100 µM (inactive)
same,GI50,SN12C,> 100 µM (inactive)
same,GI50,SNB-19,> 100 µM (inactive)
same,GI50,SNB-75,> 100 µM (inactive)
same,GI50,SR,> 100 µM (inactive)
same,GI50,SW-620,> 100 µM (inactive)
same,GI50,T47D,> 100 µM (inactive)
same,GI50,TK-10,> 100 µM (inactive)
same,GI50,U-251,> 100 µM (inactive)
same,GI50,UACC-257,> 100 µM (inactive)
same,GI50,UACC-62,> 100 µM (inactive)
same,GI50,UO-31,> 100 µM (inactive)
COc1ccc(-c2csc3c2[N+]2(C)C=CC=C2C3N2CCCC2)cc1 (stereo unspecified),GI50,786-0,41.6 µM (inactive)
same,GI50,A498,31.1 µM (inactive)
same,GI50,A549,39.9 µM (inactive)
same,GI50,ACHN,44.8 µM (inactive)
same,GI50,BT-549,8.2 µM (inactive)
same,GI50,CAKI-1,> 100 µM (inactive)
same,GI50,CCRF-CEM,28.3 µM (inactive)
same,GI50,COLO 205,13.6 µM (inactive)
same,GI50,EKVX,20.5 µM (inactive)
same,GI50,HCT-116,33 µM (inactive)
same,GI50,HCT-15,37.9 µM
same,GI50,HL-60,3.61 µM (inactive)
same,GI50,HOP-62,27.2 µM (inactive)
same,GI50,HOP-92,18.7 µM (inactive)
same,GI50,HT-29,16.9 µM (inactive)
same,GI50,Hs-578T,15.7 µM (inactive)
same,GI50,IGROV-1,11.2 µM (inactive)
same,GI50,K562,6.61 µM (inactive)
same,GI50,KM12,15.3 µM (inactive)
same,GI50,LOX IMVI,35 µM (inactive)
same,GI50,M14,29.8 µM (inactive)
same,GI50,MCF7,29 µM (inactive)
same,GI50,MDA-MB-231,94 µM (inactive)
same,GI50,MDA-MB-435,3.13 µM (inactive)
same,GI50,MDA-N,7.6 µM (inactive)
same,GI50,MOLT-4,27.5 µM (inactive)
same,GI50,Malme-3M,12.2 µM (inactive)
same,GI50,NCI-H226,2.21 µM (inactive)
same,GI50,NCI-H23,10.6 µM (inactive)
same,GI50,NCI-H460,16.1 µM (inactive)
same,GI50,NCI-H522,2.43 µM (inactive)
same,GI50,NCI/ADR-RES,17.3 µM (inactive)
same,GI50,OVCAR-3,13.3 µM (inactive)
same,GI50,OVCAR-4,46.8 µM (inactive)
same,GI50,OVCAR-5,39 µM (inactive)
same,GI50,OVCAR-8,17.5 µM (inactive)
same,GI50,PC-3,23 µM (inactive)
same,GI50,RPMI-8226,8.34 µM (inactive)
same,GI50,RXF 393,21.3 µM (inactive)
same,GI50,SF-268,22 µM (inactive)
same,GI50,SF-295,10.6 µM (inactive)
same,GI50,SF-539,17.7 µM (inactive)
same,GI50,SK-MEL-2,10.6 µM (inactive)
same,GI50,SK-MEL-5,8.59 µM (inactive)
same,GI50,SK-OV-3,49.1 µM (inactive)
same,GI50,SNB-19,26.6 µM (inactive)
same,GI50,SNB-75,4.12 µM (inactive)
same,GI50,SR,5.28 µM (inactive)
same,GI50,SW-620,24.4 µM (inactive)
same,GI50,T47D,16.3 µM (inactive)
same,GI50,TK-10,48.9 µM (inactive)
same,GI50,U-251,7.01 µM (inactive)
same,GI50,UACC-257,7.4 µM (inactive)
same,GI50,UACC-62,15.5 µM (inactive)
same,GI50,UO-31,57 µM (inactive)
